Measured values published in patent US12559574B2 (National Health Research Institutes, priority 2019, dated 2026).
Where two headings read alike, the source gives them in different places.

Experiments:
A549 = experiment: transwell migration and Matrigel invasion, A549; assay type: cell-based, human; conditions: 24 h; for succinate-induced A549 migration: succinate with test agent
Experimental: (§1) Transwell migration and invasion assays are performed. Relative ability of migration or invasion is calculated from 3 fields under a light microscope. […] Migration assays and Matrigel invasion assay are then performed with PDGF-BB as a chemoattractant and migrated cell counts expressed as fold of basal controls.
(§2) The cells are lysed, and the cell lysates are immunoblotted with antibodies specific for E-cadherin, N-cadherin, vimentin, or β-actin.
(§3) LLC and A549 lung cancer cells are treated with different concentrations of HIF-1α specific inhibitors, and cell migration is assessed in a transwell assay. […] Prolyl hydroxylase (PHD) controls HIF-1α protein stability by hydroxylation of two conserved proline residues in HIF-1α thereby accelerating its degradation. […] Cell lysates are immunoblotted with antibodies specific for E-cadherin, Vimentin, or […]-actin.

LLC cells = experiment: transwell migration and Matrigel invasion, LLC; assay type: cell-based, murine; conditions: 24 h; for succinate-induced LLC migration: succinate with test agent
Experimental: as §1, §3

A549 cells = experiment: EMT marker immunoblot in A549 cells; assay type: cell-based, human
Experimental: as §2, §3

HIF-1α [1] = experiment: kinase phosphorylation and HIF-1α expression in A549 cells; assay type: cell-based, human; conditions: for HIF-1α expression: A549/shNC cells, succinate 1 mM or DMS 20 mM, 12 h, qPCR
Experimental: MAPK-, phosphatidylinositol 3-kinase (PI3K)-AKT-mTOR-, and AMP-activated protein kinase (AMPK)-mediated hypoxia-inducible factor-1α (HIF-1α) upregulation plays critical roles in macrophage activation and cancer progression. Therefore, it is investigated that whether these signaling molecules mediate the succinate actions. […] Using selective kinase inhibitors, LLC cells are treated with different concentrations of LY294002 or SB202190 for 12 h, and Hif-1α mRNA is measured. […] To understand the role of SUCNR1 in driving HIF-1α expression, the expression level of HIF-1α in A549/shSUCNR1 is determined.

MCF-7 = conditions: MCF-7, different concentrations of succinate, 24 h
Experimental: as §1

PC3 = experiment: transwell migration and Matrigel invasion, PC3; assay type: cell-based, human; conditions: PC3, different concentrations of succinate, 24 h
Experimental: (§4) Transwell migration and invasion assays are performed.
(§5) Succinate-induced migration of LLC, A549, PC3 and HT-29 cells is blocked by anti-SUCNR1 antibody but not control IgG antibody (FIG. 23A).

LLC [2] = conditions: succinate 20 and 100 mg/kg i.p. twice a week for 3 weeks vs saline
Experimental: (§6) On day 21, primary subcutaneous tumors are harvested, and percentage of TAMs is analyzed.

[3] = tested on: mouse peritoneal macrophages
Experimental: as §6

SUCNR1 [4] = conditions: A549, succinate 1 mM
HIF-1α [5] = experiment: kinase phosphorylation and HIF-1α expression in LLC cells; assay type: cell-based, murine; conditions: succinate 1 mM
SUCNR1 [6] = conditions: succinate 1 mM, 2 h
LLC [7] = tested on: LLC
Excerpt: The subcutaneous primary tumors are surgically removed after 3 weeks and mice are kept for another 2 weeks at which time animals are sacrificed.

peritoneal macrophages [8] = experiment: peritoneal macrophage transwell migration (A549-CM, succinate, anti-SUCNR1); assay type: cell-based, mouse; conditions: succinate vs control
Experimental: The peritoneal macrophages are seeded on the upper chamber of transwell plates and cultured with control medium (DMEM) or CM from A549 (A549-CM) for 24 h. […] As shown in FIGS. 18A and 18B, A549-CM and A549-SCM increase macrophage migration compared with the control medium, which is abrogated by anti-SUCNR1 antibody but not control IgG.

HT-29 = experiment: transwell migration and Matrigel invasion, HT-29; assay type: cell-based, human; conditions: HT-29, different concentrations of succinate, 24 h
Experimental: as §4, §5

PMϕs = experiment: VCAM1+CD11c+CD11b low-TAM population in succinate-stimulated PMϕs, flow cytometry; assay type: cell-based, mouse; conditions: pre-treated 1 h, succinate 1 mM 3 days
Experimental: (§7) VCAM1^+CD11c^+CD11b^low-TAM population is quantified by flow cytometry and normalized to the cell number of control medium treatment. […] The LLC cells are subcutaneously injected into C57BL/6J mice. The mice with an average 50 mm^3 subcutaneous tumors (8 day after LLC tumor inoculation) receive intraperitoneal injections of 6G10F6 monoclonal antibody (1 and 5 mg/kg) or IgG control antibody (5 mg/kg), twice a week for 5 weeks. The subcutaneous tumors are surgically removed 3 weeks after LLC injection for the assessment of TAM polarization; the lung, liver, spleen, and adrenal gland are excised from mice 2 weeks after removal of the primary tumor for the determination of tumor metastasis.

LLC [9] = experiment: syngeneic murine LLC tumor model treated with 6G10F6 monoclonal antibody
Experimental: as §7

peritoneal macrophages [10] = experiment: succinate-induced peritoneal macrophage migration with anti-succinate antibodies, transwell; assay type: cell-based, mouse; conditions: succinate 1 mM, 24 h
Experimental: as §7

[11] = succinate 20 and 100 mg/kg i.p. twice a week vs saline

COc1cc2c(cc1O)CC[C@@H]1[C@@H]2CC[C@]2(C)[C@@H](O)CC[C@@H]12 [2-MeOE2]
succinate-induced A549 migration (A549): inhibit succinate-mediated migration of LLC and A549 in a dose-dependent manner | succinate-induced LLC migration (LLC cells): inhibit succinate-mediated migration of LLC and A549 in a dose-dependent manner

Cc1cc(-c2nc(-c3ccc(OC(F)(F)F)cc3)no2)nn1Cc1ccnc(N2CCN(C3CC3)CC2)c1 [Bay 87-2243]
succinate-induced A549 migration (A549): inhibit succinate-mediated migration of LLC and A549 in a dose-dependent manner | succinate-mediated vimentin augmentation and E-cadherin reduction (A549 cells; pretreated 1 h, succinate 1 mM 24 h): suppresses | succinate-induced LLC migration (LLC cells): inhibit succinate-mediated migration of LLC and A549 in a dose-dependent manner

COC(=O)CNC(=O)C(=O)OC [DMOG, dimethyloxalyl glycine]
succinate-induced A549 migration (A549): increases

COC(=O)CCC(=O)OC [DMS, dimethyl-ester succinate, reference compound]
HIF-1α expression (HIF-1α [1]): results in elevation of HIF-1α

CN(C)C(=N)N=C(N)N [metformin]
succinate-induced A549 migration (A549): abolish

O=C(O)CCC(=O)O [succinate]
cell migration and invasion (MCF-7): promotes cell migration and invasion | cell migration and invasion (A549; A549, different concentrations of succinate): promotes cell migration and invasion | cell migration and invasion (PC3): promotes cell migration and invasion | VCAM1+CD11c+CD11b low-TAMs in primary subcutaneous tumors (LLC [2]): significantly higher number | ARG1 protein expression ([3]; different concentrations of succinate, 24 h): increases the expression of ARG1 protein in mouse peritoneal macrophages in a concentration-dependent manner | TAM marker gene expression (Arg1, Fizz1, Mgl1, Mgl2 mRNA) ([3]; qPCR, 24 h): raises the expression of TAM marker gene | TAM surface markers CD11c and VCAM1 ([3]; succinate 1 mM, 3 days, flow cytometry): up-regulates TAM surface markers | phosphorylated ERK1/2 (SUCNR1 [4]): rapid rise of phosphorylated ERK1/2 at 2 min | intracellular Ca2+ (SUCNR1 [4]; 2 h): increased | E-cadherin, N-cadherin and vimentin levels (A549 cells; succinate 0.5, 1, 2.5 mM 24 h, 1 mM time course): suppresses E-cadherin and increased N-cadherin and vimentin in a concentration and time-dependent manner | HIF-1α protein and mRNA expression (HIF-1α [5]): increases HIF-1α protein | phosphorylation of p38 MAPK, AKT, and AMPK (HIF-1α [5]): induces phosphorylation of p38 MAPK, AKT, and AMPK in a time-dependent manner | PGE2 released into the medium (SUCNR1 [6]; LLC stably transfected with control shRNA): increased | intracellular Ca2+ (SUCNR1 [6]; LLC): increased | metastatic cancer nodules in liver and spleen (LLC [7]; [11]): similarly higher | metastatic cancer nodules in lungs (LLC [7]; [11]): higher in mice receiving succinate (in a dose-dependent manner) than in mice receiving saline | incidence of adrenal metastasis (LLC [7]; succinate-treated vs saline, p=0.088): higher in succinate-treated animal, but the difference does not reach statistical significance | macrophage migration (peritoneal macrophages [8]): dramatically increase macrophage migration | cell migration and invasion (LLC cells; LLC, different concentrations of succinate): promotes cell migration and invasion | cell migration and invasion (HT-29): promotes cell migration and invasion | HIF-1α protein and mRNA expression (HIF-1α [1]; A549, succinate 1 mM): increases HIF-1α protein | phosphorylation of p38 MAPK, AKT, and AMPK (HIF-1α [1]; A549, succinate 1 mM): induces phosphorylation of p38 MAPK, AKT, and AMPK in a time-dependent manner | HIF-1α expression (HIF-1α [1]): Up-regulation of HIF-1α is observed

O=C(O)CCC(=O)C(=O)O [α-KG, α-ketoglutarate]
succinate-induced A549 migration (A549): reduces

B1: 6G10F6: mouse monoclonal anti-succinate antibody, heavy chain SEQ ID NO: 2, light chain SEQ ID NO: 4 (antibody, V domains shown)
VH: MRVLILLWLFTAFPGILSDVQLQESGPGLVKPSQSLSLTCTVTGYSITSDYAWNWFRQFPGNKLEWMGYTSYSGSTSYNPSLKSRISITRNTSKNQIFLQLNSVTPEDTATYYCAREVTTFGYFDYWGQGTTLTVSS
VL: MAWTSLILSLLALCSGASSQAVVTQESALTTSPGGTVILTCRSSTGAVTTSNYANWVQEKPDHLFTGLIGGTSNRAPGVPVRFSGSLIGDKAALTITGAQTEDDAMYFCALWYSTHYVLGGGTKVTVL
modifications: Heavy chain of 6G10F6 Antibody; Light chain of 6G10F6 antibody
succinate up-regulated TAM surface markers CD11c and VCAM1 (PMϕs): suppresses | survival of LLC tumor-bearing mice (LLC [9]; 1 and 5 mg/kg i.p.): significantly prolongs the survival | lung tumor multiplicities (LLC [9]; 1 and 5 mg/kg i.p. twice a week for 5 weeks, vs saline): significantly suppresses | TAM population in subcutaneous tumors (LLC [9]; 1 and 5 mg/kg i.p. twice a week, vs saline): significantly suppresses | succinate-induced macrophage migration (peritoneal macrophages [10]): suppresses
